Several values for one entry are separate records, joined by “and”; a condition that tells them apart may be missing. Identical values can stand only once. Like-named read-outs stand apart in the source and are kept apart here.
How the values were obtained:
rat DRG neurons [1] = assay: Calcium imaging of rat DRG neurons; format: cell-based; details: for capsaicin-sensitive DRG neurons that responded: 4-HNE 30 μM, 4-ONE 3 μM
mouse TRPA1 [2] = target: T1, mouse TRPA1 (Mus musculus, UniProt Q8BLA8); assay: Voltage-clamp electrophysiology of TRPA1 CHO cells; format: cell-based; details: for membrane current in TRPA1 CHO cells: whole-cell, holding potential -60 mV
[3] = system: DRG neurons from trpa1+/+ mice; assay: Calcium imaging of DRG neurons from trpa1+/+ mice; format: cell-based; details: trpa1+/+ mouse DRG neurons; percentage of response to 50 mM KCl
[4] = system: DRG neurons from trpa1-/- mice; assay: Calcium imaging of DRG neurons from trpa1-/- mice; format: cell-based; details: trpa1-/- mouse DRG neurons; percentage of response to 50 mM KCl
mouse TRPA1 [5] = target: T1, mouse TRPA1; assay: [Ca2+]i increase in TRPA1-expressing CHO cells; format: cell-based; details: for [Ca2+]i-increase in TRPA1 CHO cells: at concentrations <50 μM, data not shown; for TRPA1 activation: Rose Bengal at 5 μM, supplemental Fig. 2
human TRPV1 = human TRPV1 (Homo sapiens, UniProt Q8NER1); assay: Responses in CHO cells expressing TRPV1; format: cell-based; details: data not shown
trpa1-/- mice = assay: Nocifensive/pain behaviour after intraplantar injection, trpa1-/- mice; format: in vivo, mouse; details: intraplantar 2.2 μmol H2O2 or 32 nmol 15d-PGJ2 in 25 μl, 3 min, compared with wild-type
untransfected CHO cells = assay: Responses; format: cell-based, Chinese hamster; details: data not shown
wild-type mice = assay: Nocifensive/pain behaviour after intraplantar injection, wild-type mice; format: in vivo, mouse; details: intraplantar 2.2 μmol H2O2 or 32 nmol 15d-PGJ2 in 25 μl, 3 min
rat nodose neurons = assay: Calcium imaging of rat nodose ganglion neurons; format: cell-based; details: for percentage of rat nodose neurons responding with [Ca2+]i increase: positive = at least 15% of response to 50 mM KCl, H2O2 5 mM, AITC 50 μM
[6] = system: DRG neurons from trpv1-/- mice; assay: Calcium imaging of DRG neurons from trpv1-/- mice; format: cell-based, mouse; details: trpv1-/- mice (113 of 355)
[7] = system: DRG neurons from wild-type mice; assay: Calcium imaging of DRG neurons from wild-type mice; format: cell-based, mouse; details: wild-type mice (134 of 445)
DRG neurons = assay: Whole-cell voltage clamp of DRG neurons; format: cell-based, rat; details: voltage ramp
rat DRG neurons [8] = details: ref Andersson et al., 2007; cited from earlier work

T1 sequence (Q8BLA8 whole entry): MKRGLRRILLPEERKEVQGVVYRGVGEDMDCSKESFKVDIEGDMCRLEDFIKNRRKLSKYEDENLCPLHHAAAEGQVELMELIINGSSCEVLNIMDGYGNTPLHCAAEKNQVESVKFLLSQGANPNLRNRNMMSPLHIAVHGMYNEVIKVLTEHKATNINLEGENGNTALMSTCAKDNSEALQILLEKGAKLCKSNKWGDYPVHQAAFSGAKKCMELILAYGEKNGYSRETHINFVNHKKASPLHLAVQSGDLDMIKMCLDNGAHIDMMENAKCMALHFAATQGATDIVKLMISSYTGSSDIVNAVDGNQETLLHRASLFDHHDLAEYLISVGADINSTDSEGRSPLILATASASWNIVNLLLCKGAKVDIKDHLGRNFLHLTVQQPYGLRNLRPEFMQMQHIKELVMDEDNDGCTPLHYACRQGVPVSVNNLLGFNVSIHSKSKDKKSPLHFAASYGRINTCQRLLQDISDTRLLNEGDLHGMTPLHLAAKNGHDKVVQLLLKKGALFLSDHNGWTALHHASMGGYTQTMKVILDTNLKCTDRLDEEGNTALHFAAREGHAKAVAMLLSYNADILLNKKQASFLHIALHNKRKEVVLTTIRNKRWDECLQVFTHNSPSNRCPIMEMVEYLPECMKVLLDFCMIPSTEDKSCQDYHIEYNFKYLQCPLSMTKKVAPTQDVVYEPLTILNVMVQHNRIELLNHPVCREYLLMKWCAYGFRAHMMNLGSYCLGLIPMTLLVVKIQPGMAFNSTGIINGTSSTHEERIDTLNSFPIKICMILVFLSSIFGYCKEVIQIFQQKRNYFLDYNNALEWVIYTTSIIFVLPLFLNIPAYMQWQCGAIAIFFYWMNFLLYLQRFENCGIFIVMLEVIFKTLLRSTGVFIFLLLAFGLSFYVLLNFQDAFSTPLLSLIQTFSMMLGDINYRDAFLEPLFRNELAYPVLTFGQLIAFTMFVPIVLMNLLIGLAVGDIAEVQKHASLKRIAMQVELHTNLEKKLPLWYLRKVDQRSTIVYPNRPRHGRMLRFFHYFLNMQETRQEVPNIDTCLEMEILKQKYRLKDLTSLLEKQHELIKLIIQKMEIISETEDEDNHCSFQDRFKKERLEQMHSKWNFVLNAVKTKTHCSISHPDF
Chain of human TRPV1 (Q8NER1 whole entry): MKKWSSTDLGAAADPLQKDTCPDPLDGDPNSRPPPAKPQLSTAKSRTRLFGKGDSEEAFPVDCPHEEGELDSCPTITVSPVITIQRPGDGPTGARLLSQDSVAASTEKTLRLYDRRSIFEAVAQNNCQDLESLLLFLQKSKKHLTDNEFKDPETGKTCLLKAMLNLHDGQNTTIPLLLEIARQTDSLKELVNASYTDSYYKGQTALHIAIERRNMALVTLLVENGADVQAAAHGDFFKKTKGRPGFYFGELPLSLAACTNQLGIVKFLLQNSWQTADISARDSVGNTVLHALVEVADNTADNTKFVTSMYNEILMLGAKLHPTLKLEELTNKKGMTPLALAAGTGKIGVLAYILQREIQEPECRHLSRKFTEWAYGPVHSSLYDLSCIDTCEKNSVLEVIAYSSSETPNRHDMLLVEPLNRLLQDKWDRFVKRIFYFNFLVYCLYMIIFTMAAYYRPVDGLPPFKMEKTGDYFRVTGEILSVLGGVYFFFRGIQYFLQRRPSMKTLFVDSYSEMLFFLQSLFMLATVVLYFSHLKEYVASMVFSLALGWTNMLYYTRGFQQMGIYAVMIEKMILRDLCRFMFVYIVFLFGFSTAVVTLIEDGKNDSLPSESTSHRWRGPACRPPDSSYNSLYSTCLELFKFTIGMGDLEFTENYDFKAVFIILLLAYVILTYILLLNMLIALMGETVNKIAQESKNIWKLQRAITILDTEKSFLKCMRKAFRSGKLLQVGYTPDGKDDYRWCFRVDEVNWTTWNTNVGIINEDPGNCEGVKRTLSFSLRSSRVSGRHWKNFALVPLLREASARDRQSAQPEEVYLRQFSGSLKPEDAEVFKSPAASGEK

For `CCCCCC(O)/C=C/C=O` (stereo not shown) [4-HNE, 4-hydroxynonenal], the “capsaicin-sensitive DRG neurons that responded” value (rat DRG neurons [1]) was “Approximately 50%”, the “membrane current in TRPA1 CHO cells” value (mouse TRPA1 [2]) was “evoked membrane currents” and the “Response amplitude (% of K+)” value [3] was 61%. The “Response amplitude (% of K+)” value [4] was 34%.
With `CCCCCC(=O)C=CC=O` [4-ONE, 4-oxo-2-nonenal] the “capsaicin-sensitive DRG neurons that responded” value (rat DRG neurons [1]) was “Approximately 50%”, the EC50 (mouse TRPA1 [5]) was 1.9 µM and the “Response amplitude (% of K+)” value [3] was 89%. The “Response amplitude (% of K+)” value [4] was 34%.
For `CCCCC/C=C\C=C1\C(=O)CC[C@@H]1C/C=C\CCCC(=O)O` [9,10-dihydro-15d-PGJ2], the “[Ca2+]i-increase in TRPA1 CHO cells” value (mouse TRPA1 [5]) was “failed to elicit any significant [Ca^2+]i-increase”.
In the case of `CCCCCC=CC=C1C(=O)C=C[C@@H]1CC=CCCCC(=O)O` [15d-PGJ2, 15-deoxy-Δ^12,14-prostaglandin J2], the “membrane current in TRPA1 CHO cells” value (mouse TRPA1 [2]) is reported as “evoked inward currents”, the “Response amplitude (% of K+)” value [3] is reported as 63% and the “[Ca2+]i increase / membrane currents in TRPV1 expressing CHO cells” value (human TRPV1) is reported as “had no effect”. For the same compound, the nocifensive/pain-related behaviour (trpa1-/- mice) was “greatly reduced or absent”, the “[Ca2+]i increase / membrane currents in untransfected CHO cells” value (untransfected CHO cells) was “had no effect” and the “Response amplitude (% of K+)” value [4] was 47%. The nocifensive/pain-related behaviour (wild-type mice) was “marked nocifensive behaviors”.
With `C=CCN=C=S` [AITC, allyl isothiocyanate] the “Response amplitude (% of K+)” value [3] was 86%, the “Response amplitude (% of K+)” value [4] was 21% and the “percentage of rat nodose neurons responding with [Ca2+]i increase” value (rat nodose neurons) was 54.0%.
In the case of `OO` [H2O2, hydrogen peroxide], the “proportion of sensitive DRG neurons” value [6] is reported as 31.8%, the “proportion of sensitive DRG neurons” value [7] is reported as 30.1% and the “capsaicin-sensitive DRG neurons that did not respond” value (rat DRG neurons [1]; rat DRG neurons, calcium imaging) is reported as ~ 50%. For the same compound, the “reversal potential of evoked current” value (mouse TRPA1 [2]; TRPA1 CHO cells, voltage ramp, calcium-free solution) was ~0 mV, the single-channel chord conductance (mouse TRPA1 [2]; cell-attached patches, -100 to +100 mV) was 94 ± 3 pS and the “membrane current in TRPA1 CHO cells” value (mouse TRPA1 [2]) was “evoked an inward current”. The “reversal of [Ca2+]i response by dithiothreitol (DTT)” value (mouse TRPA1 [5]; DTT 1 mM) was “reversed”, the “EC50 lower / potency increased in Fe2+-loaded vs untreated cells” value (mouse TRPA1 [5]; TRPA1 CHO cells, after 90 s) was ~ 20 fold and 20 fold and the “concentrations that activate TRPA1” value (mouse TRPA1 [5]; extracellularly applied) was 50 to 100 µM. The EC50 (mouse TRPA1 [5]; read-out: EC50, increase in [Ca2+]i in Fe2+-loaded cells, TRPA1 CHO cells preloaded with 100 μM FeSO4 for 1 h, after 90 s) was 53 ± 6 µM, the EC50 (mouse TRPA1 [5]; read-out: EC50, increase in [Ca2+]i, TRPA1 CHO cells, after 90 s exposure) was 1200 ± 400 µM and the EC50 (mouse TRPA1 [5]; read-out: EC50, increase in [Ca2+]i, TRPA1 CHO cells, after 600 s exposure (plateau)) was 230 µM. For the same compound, the “Response amplitude (% of K+)” value [3] was 70%, the nocifensive/pain-related behaviour (trpa1-/- mice) was “greatly reduced or absent” and the “reversal potential of evoked current” value (DRG neurons) was -6 mV. For the same compound, the “currents in untransfected CHO cells” value (untransfected CHO cells; concentrations up to 100 mM) was “failed to evoke currents”, the “Response amplitude (% of K+)” value [4] was 31% and the “percentage of rat nodose neurons responding with [Ca2+]i increase” value (rat nodose neurons) was 49.8%. The “capsaicin-sensitive nodose neurons that did not respond” value (rat nodose neurons; rat nodose neurons, calcium imaging) was ~ 30% and the nocifensive/pain-related behaviour (wild-type mice) was “marked nocifensive behaviors”.
With `CCCCC[C@H](O)/C=C/[C@H]1C=CC(=O)[C@@H]1C/C=C\CCCC(=O)O` [PGA2] the “[Ca2+]i-increase in TRPA1 CHO cells” value (mouse TRPA1 [5]) was “failed to elicit any significant [Ca^2+]i-increase”.
In the case of `O=C([O-])c1c(Cl)c(Cl)c(Cl)c(Cl)c1-c1c2cc(I)c(=O)c(I)c-2oc2c(I)c([O-])c(I)cc12.[Na+].[Na+]` [Rose Bengal], the TRPA1 activation (mouse TRPA1 [5]) is reported as “activated”.
In the case of `Cc1ccc(S(=O)(=O)NCl)cc1` [chloramine T], the TRPA1 activation (mouse TRPA1 [5]) is reported as “activated”.
In the case of `CC1CCC(C(C)C)C(O)C1` (stereo not shown) [menthol], the “percentage of sensitive DRG neurons in DRG cultures” value (rat DRG neurons [8]) is given as ~ 8%.
